US20260152527A1, “NOVEL MELANOCORTIN ANALOGS” (priority 2022, published 2026)
Starred links: 1 amine or outer side, 2 acyl side, 3 side chain; linkers in the order of their positions; H or OH if unused. Positions of bridges follow the written chain, without caps; N, C: chain ends. Non-standard residues stand in square brackets, D forms with d. Residues, ends and D or L forms follow the SMILES beside them. Triazole bridges read from a SMILES are 1,4-linked. NMeW = CN[C@@H](Cc1c[nH]c2ccccc12)C(=O)O; Lys(N3) = [N-]=[N+]=NCCCC[C@H](N)C(=O)O; Phe(4-NH2) = Nc1ccc(C[C@H](N)C(=O)O)cc1; Orn(N3) = [N-]=[N+]=NCCC[C@H](N)C(=O)O; NMeR = CN[C@@H](CCCNC(=N)N)C(=O)O; hArg = N=C(N)NCCCC[C@H](N)C(=O)O; R8 = C=CCCCCCC[C@@](C)(N)C(=O)O; Aad = N[C@@H](CCCC(=O)O)C(=O)O; Suc = O=C(CCC(=O)[*:2])[*:1]; S5 = C=CCCC[C@](C)(N)C(=O)O; Hpra = C#CCC[C@H](N)C(=O)O; dPra = C#CC[C@@H](N)C(=O)O; Nle = CCCC[C@H](N)C(=O)O; Pra = C#CC[C@H](N)C(=O)O; Dab = NCC[C@H](N)C(=O)O

molecular target: T1, human recombinant MC4R (Homo sapiens, UniProt P32245); assay: Ca2+ signalling functional assay, MC4R stable cell line (CHO-K1/Gα15); type: cell-based; details: calcium flux functional assay
T1 construct: host or cells: CHO-K1/Gα15
T1 sequence (P32245 whole entry): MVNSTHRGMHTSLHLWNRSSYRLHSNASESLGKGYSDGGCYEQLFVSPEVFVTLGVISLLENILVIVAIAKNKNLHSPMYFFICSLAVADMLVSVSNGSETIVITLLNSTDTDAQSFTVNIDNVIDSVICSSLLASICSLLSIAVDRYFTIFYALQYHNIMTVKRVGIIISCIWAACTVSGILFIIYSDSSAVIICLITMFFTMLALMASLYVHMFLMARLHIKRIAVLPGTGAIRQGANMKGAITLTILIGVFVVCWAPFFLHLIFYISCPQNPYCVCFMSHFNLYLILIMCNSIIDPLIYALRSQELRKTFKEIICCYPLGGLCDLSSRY
Method: The Ca^2+ signalling functional assay was performed on a human recombinant MC4R stable cell line (CHO-K1/Gα15, GenScript). The cells were cultured at 37° C. and 5% CO2 with culture medium (90% Ham's F-12K (Kaighn's)+10% FBS+8 μg/mL Puromycin+100 μg/mL Hygromycin B). Cells were washed with PBS and then detached by incubation with 0.05% (w/v) Trypsin EDTA at 37° C. for 2-5 mins. Detached cells were suspended in Ham's F-12K (Kaighn's) (containing 10% FBS) and a 50 μL cell suspension was seeded into each well of a 384-well assay plate at a density of 15,000 cells/well. Cells were allowed to settle overnight at 37° C., 5% CO2. The next day, the assay plate was centrifuged and the media was replaced with dye (1×) in assay buffer (containing HBSS, HEPES 20 mM and probenecid 1 mM) and incubated for 1 h at 37° C. […] Then, 100 nL of compounds were transferred to the compound plate by the Echo machine. 30 μL assay buffer was added to the compounds plate and then shaken for 20 to 40 minutes. The plates were placed on the FLIPR and 15 μL of the compound was added to each well, then calcium flux signal was measured.

Compound | IC50
CCCC[C@H](NC(C)=O)C(=O)N1CCC(=O)NCC[C@@H](C(=O)N[C@@H](Cc2c[nH]c3ccccc23)C(N)=O)NC(=O)[C@H](CCCNC(=N)N)NC(=O)[C@@H](Cc2ccccc2)NC(=O)[C@H](Cc2c[nH]cn2)NC(=O)C1 [KR-027, Ac-Nle-cyc(NGlu-His-DPhe-Arg-Dab)-Trp-NH2] | 84.1 nM
CSCC[C@H](NC(=O)[C@H](CO)NC(=O)[C@H](Cc1ccc(O)cc1)NC(=O)[C@H](CO)NC(C)=O)C(=O)N[C@@H](CCC(=O)O)C(=O)N[C@@H](Cc1c[nH]cn1)C(=O)N[C@@H](Cc1ccccc1)C(=O)N[C@@H](CCCNC(=N)N)C(=O)N[C@@H](Cc1c[nH]c2ccccc12)C(=O)NCC(=O)N[C@@H](CCCCN)C(=O)N1CCC[C@H]1C(N)=O [KR-005] | 67.1 nM
CCCC[C@H](NC(C)=O)C(=O)N[C@H]1CCCCn2cc(nn2)C[C@H](C(=O)N[C@@H](CCCCN)C(N)=O)NC(=O)[C@H](Cc2c[nH]c3ccccc23)NC(=O)[C@H](CCCNC(=N)N)NC(=O)[C@@H](Cc2ccccc2)NC(=O)[C@H](Cc2c[nH]cn2)NC1=O [KR-070, Ac-Nle-[Lys(N3)-His-DPhe-Arg-Trp-DPra]-Lys-NH2] (Ac-[Nle][Lys(N3)]H[dF]RW[dPra]K-NH2; triazole 2-7) | 84.1 nM

molecular target: T2, human recombinant MC5R (Homo sapiens, UniProt P33032); assay: Ca2+ signalling functional assay, MC5R stable cell line (CHO-K1/Ga15); type: cell-based; details: calcium flux functional assay
T2 construct: host or cells: CHO-K1/Ga15
T2 sequence (P33032 whole entry): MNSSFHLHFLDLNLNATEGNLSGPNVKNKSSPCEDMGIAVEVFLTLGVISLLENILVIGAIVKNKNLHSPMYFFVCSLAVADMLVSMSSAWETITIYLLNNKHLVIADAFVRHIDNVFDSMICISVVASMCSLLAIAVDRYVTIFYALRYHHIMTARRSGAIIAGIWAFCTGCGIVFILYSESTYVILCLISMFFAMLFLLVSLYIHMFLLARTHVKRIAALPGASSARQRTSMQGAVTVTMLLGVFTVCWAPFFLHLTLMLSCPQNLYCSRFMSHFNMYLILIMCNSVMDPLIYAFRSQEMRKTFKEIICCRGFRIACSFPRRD
Method: The Ca^2+ signalling functional assay was performed on a human recombinant MC5R stable cell line (CHO-K1/Ga15, GenScript). The cells were cultured at 37° C. and 5% C02 with culture medium (90% Ham's F-12K (Kaighn's)+10% FBS+400 μg/mL G418+100 μg/mL Hygromycin B). Cells were washed with PBS and then detached by incubation with 0.05% (w/v) Trypsin EDTA at 37° C. for 2 to 5 mins. Detached cells were suspended in Ham's F-12K (Kaighn's) (containing 10% FBS) and a 50 μL cell suspension is seeded into each well of a 384-well assay plate at a density of 15,000 cells/well. Cells were allowed to settle overnight at 37° C., 5% CO2. […] Then, 100 nL of compounds were transferred to the compound plate by the Echo machine. Thirty microliter assay buffer was added to the compounds plate and then shaken for 20-40 minutes. The plates were placed on the FLIPR and 15 μL of the compound was added to each well, then calcium flux signal was measured.

Compound | IC50 | MC5R IC50
Ac-EHFRWGKP-NH2 [KR-007] | > 10000 nM | –
CC(=O)N[C@H]1CCCCn2cc(nn2)C[C@@H](C(N)=O)NC(=O)CNC(=O)[C@H](Cc2c[nH]c3ccccc23)NC(=O)[C@H](CCCNC(=N)N)NC(=O)[C@H](Cc2ccccc2)NC(=O)[C@H](Cc2c[nH]cn2)NC(=O)[C@H](CCC(=O)O)NC1=O [KR-010, Ac-[Lys(N3)-Glu-His-Phe-Arg-Trp-Gly-Pra]-NH2] (Ac-[Lys(N3)]EHFRWG[Pra]-NH2; triazole 1-8) | > 10000 nM | –
CC(=O)N[C@@H](CCC(=O)O)C(=O)N[C@@H](Cc1c[nH]cn1)C(=O)N[C@@H](Cc1ccccc1)C(=O)N[C@@H](CCCNC(=N)N)C(=O)N[C@@H](Cc1c[nH]c2ccccc12)C(=O)NCC(=O)N[C@@H](CCCCN)C(=O)N1CCC[C@H]1C(=O)N[C@H](C(N)=O)C(C)C [KR-004] | > 10000 nM | –
N=C(N)NCCC[C@@H]1NC(=O)[C@H](Cc2ccccc2)NC(=O)[C@H](Cc2c[nH]cn2)NC(=O)[C@H](CCC(=O)O)NC(=O)CSC[C@@H](C(N)=O)NC(=O)CNC(=O)[C@H](Cc2c[nH]c3ccccc23)NC1=O [KR-012, Cyclo(-Ac-Glu-His-Phe-Arg-Trp-Gly-Cys)-NH2] ({CH2CO}-EHFRWGC-NH2; thioether N-7) | – | Not fit
CCCC[C@H](NC(C)=O)C(=O)N[C@H]1CCCCn2cc(nn2)C[C@@H](C(N)=O)NC(=O)[C@H](Cc2c[nH]c3ccccc23)NC(=O)[C@H](CCCNC(=N)N)NC(=O)[C@H](Cc2ccccc2)NC(=O)[C@H](Cc2c[nH]cn2)NC1=O [KR-008, Ac-Nle-[Lys(N3)-His-Phe-Arg-Trp-Pra]-NH2] (Ac-[Nle][Lys(N3)]HFRW[Pra]-NH2; triazole 2-7) | > 10000 nM | –
CCCC[C@H](NC(C)=O)C(=O)N[C@H]1CCCn2cc(nn2)CC[C@@H](C(=O)N[C@@H](CCCCN)C(N)=O)NC(=O)[C@H](Cc2c[nH]c3ccccc23)NC(=O)[C@H](CCCNC(=N)N)NC(=O)[C@@H](Cc2ccccc2)NC(=O)[C@H](Cc2c[nH]cn2)NC1=O [KR-068, Ac-Nle-[Orn(N3)-His-DPhe-Arg-Trp-Hpra]-Lys-NH2] (Ac-[Nle][Orn(N3)]H[dF]RW[Hpra]K-NH2; triazole 2-7) | 40.3 nM | –
CC(=O)N[C@]1(C)CCCCCCC=CCCC[C@@](C)(C(N)=O)NC(=O)CNC(=O)[C@H](Cc2c[nH]c3ccccc23)NC(=O)[C@H](CCCNC(=N)N)NC(=O)[C@H](Cc2ccccc2)NC(=O)[C@H](Cc2c[nH]cn2)NC(=O)[C@H](CCC(=O)O)NC1=O [KR-015, Ac-R8-Glu-His-Phe-Arg-Trp-Gly-S5-NH2] (Ac-[R8]EHFRWG[S5]-NH2; staple 1-8) | > 10000 nM | –

molecular target: T3, human recombinant MC3R (Homo sapiens, UniProt P41968); assay: Ca2+ signalling functional assay, MC3R stable cell line (CHO-K1/Gα15); type: cell-based; details: calcium flux functional assay
T3 construct: host or cells: CHO-K1/Gα15
T3 sequence (P41968 whole entry): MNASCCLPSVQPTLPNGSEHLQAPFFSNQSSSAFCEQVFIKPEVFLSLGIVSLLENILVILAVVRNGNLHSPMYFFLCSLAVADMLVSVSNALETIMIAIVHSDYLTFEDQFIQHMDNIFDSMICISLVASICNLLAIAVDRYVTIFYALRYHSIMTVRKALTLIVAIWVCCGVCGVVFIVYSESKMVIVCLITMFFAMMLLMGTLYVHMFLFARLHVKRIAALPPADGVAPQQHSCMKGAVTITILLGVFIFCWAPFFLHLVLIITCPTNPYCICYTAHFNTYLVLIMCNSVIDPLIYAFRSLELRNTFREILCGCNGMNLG
Method: The Ca^2+ signalling functional assay was performed on a human recombinant MC3R stable cell line (CHO-K1/Gα15, GenScript). The cells were cultured at 37° C. and 5% CO2 with culture medium (90% Ham's F-12K (Kaighn's)+10% FBS+200 μg/mL Zeocin+100 μg/mL Hygromycin B). Cells were washed with PBS and then detached by incubation with 0.05% (w/v) Trypsin EDTA at 37° C. for 2-5 mins. Detached cells were suspended in Ham's F-12K (Kaighn's) (containing 10% FBS) and a 50 μL cell suspension was seeded into each well of a 384-well assay plate at a density of 10,000 cells/well. Cells were allowed to settle overnight at 37° C., 5% CO2. […] The compounds and reference compound ACTH were diluted in 4 folds starting from 50 uM. Then, 500 nL of compounds were transferred to the compound plate by the Echo machine. 30 uL assay buffer was added into the compounds plate and then shaken for 20-40 minutes. The plates were then placed on the FLIPR Tetra High-Throughput Cellular Screening System (FLIPR®, Molecular Devices) and 15 μL of the compound was added to each well, then calcium flux signal was measured.

Compound | IC50
CCCC[C@H](NC(C)=O)C(=O)N[C@H]1CCCCn2cc(nn2)C[C@@H](C(N)=O)NC(=O)[C@H](Cc2c[nH]c3ccccc23)NC(=O)[C@H](CCCNC(=N)N)N(C)C(=O)[C@@H](Cc2ccccc2)NC(=O)[C@H](Cc2c[nH]cn2)NC1=O [KR-045, Ac-Nle-[Lys(N3)-His-DPhe-NMeArg-Trp-Pra]-NH2] (Ac-[Nle][Lys(N3)]H[dF][NMeR]W[Pra]-NH2; triazole 2-7) | > 50000 nM

molecular target: T4, human recombinant MC1R (Homo sapiens, UniProt Q01726); assay: cyclic AMP (cAMP) functional assay, MC1R stable cell line (CHO-K1); type: cell-based; details: cAMP functional assay;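 further: cells with test compound for 60 min at room temperature in buffer containing IBMX, then cAMP quantified by Eu-cAMP tracer and ULight anti-cAMP detection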
T4 construct: host or cells: CHO-K1
T4 sequence (Q01726 whole entry): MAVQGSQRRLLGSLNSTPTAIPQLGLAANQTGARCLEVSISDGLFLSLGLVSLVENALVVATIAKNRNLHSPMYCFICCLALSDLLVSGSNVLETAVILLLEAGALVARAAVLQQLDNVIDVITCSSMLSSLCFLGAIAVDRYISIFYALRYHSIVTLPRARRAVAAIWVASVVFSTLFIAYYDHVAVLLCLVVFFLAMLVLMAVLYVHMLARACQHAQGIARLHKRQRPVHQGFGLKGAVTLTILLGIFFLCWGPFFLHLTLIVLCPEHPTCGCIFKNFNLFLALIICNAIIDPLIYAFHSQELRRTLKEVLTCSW
Method: The cyclic AMP (cAMP) functional assay was performed on a human recombinant MC1R stable cell line (CHO-K1, GenScript). The cells were cultured at 37° C. and 5% CO2 with culture medium (90% Ham's F-12K (Kaighn's)+10% FBS+400 μg/mL G418). […] Then, 100 nL of compounds were transferred to the assay plate by the Echo machine. Cells were washed with PBS and then detached by incubation with 0.05% (w/v) Trypsin EDTA at 37° C. for 2 to 5 mins. Cells were collected with stimulation buffer (1×HBSS with 5 mM HEPES+0.2 mM IBMX+0.1% BSA) and 10 ul of cells (the density of 2,500 cells/well) solution was transferred to assay plate, centrifuged at 600 rpm for 3 min and then incubated with compounds at room temperature for 60 min. After that, 5 μL 4×Eu-cAMP tracer solution and 5 μL 4×ULight™-anti-cAMP solution was added into the cells, centrifuged at 600 rpm for 3 min and incubated for 60 min. The cAMP signal was detected with Envision® Multimode Plate Reader (PerkinElmer).

Compound | IC50
CSCC[C@H](NC(=O)[C@H](CO)NC(=O)[C@H](Cc1ccc(O)cc1)NC(=O)[C@H](CO)NC(C)=O)C(=O)N[C@@H](CCC(=O)O)C(=O)N[C@@H](Cc1c[nH]cn1)C(=O)N[C@@H](Cc1ccccc1)C(=O)N[C@@H](CCCNC(=N)N)C(=O)N[C@@H](Cc1c[nH]c2ccccc12)C(=O)NCC(=O)N[C@@H](CCCCN)C(N)=O [KR-006] | 0.11 nM
CCCC[C@H](NC(C)=O)C(=O)N[C@H]1CCCCn2cc(nn2)C[C@@H](C(=O)N[C@@H](CCCCN)C(N)=O)NC(=O)[C@H](Cc2c[nH]c3ccccc23)NC(=O)[C@H](CCCCNC(=N)N)NC(=O)[C@@H](Cc2ccccc2)NC(=O)[C@H](Cc2c[nH]cn2)NC1=O [KR-054, Ac-Nle-[Lys(N3)-His-DPhe-HArg-Trp-Pra]-Lys-NH2] (Ac-[Nle][Lys(N3)]H[dF][hArg]W[Pra]K-NH2; triazole 2-7) | 0.093 nM
CCCC[C@H](NC(C)=O)C(=O)N[C@H]1CCCCn2cc(nn2)C[C@@H](C(N)=O)NC(=O)[C@H](Cc2c[nH]c3ccccc23)N(C)C(=O)[C@H](CCCNC(=N)N)N(C)C(=O)[C@@H](Cc2ccccc2)NC(=O)[C@H](Cc2c[nH]cn2)NC1=O [KR-050, Ac-Nle-[Lys(N3)-His-DPhe-NMeArg-NMeTrp-Pra]-NH2] (Ac-[Nle][Lys(N3)]H[dF][NMeR][NMeW][Pra]-NH2; triazole 2-7) | 0.081 nM
CCCC[C@H](NC(C)=O)C(=O)N[C@H]1CSCc2cccc(c2)CSC[C@@H](C(=O)N[C@@H](Cc2c[nH]c3ccccc23)C(N)=O)NC(=O)[C@H](CCCNC(=N)N)NC(=O)[C@@H](Cc2ccccc2)NC(=O)[C@H](Cc2c[nH]cn2)NC1=O [KR-032, Ac-Nle-cyc(Cys-His-DPhe-Arg-Cys)-Trp, L: m-xylene-NH2] | 0.081 nM
CCCC[C@H](NC(C)=O)C(=O)N[C@H]1CCNC(=O)CCC(=O)NCC[C@@H](C(N)=O)NC(=O)[C@H](Cc2c[nH]c3ccccc23)NC(=O)[C@H](CCCNC(=N)N)NC(=O)[C@@H](Cc2ccccc2)NC(=O)[C@H](Cc2c[nH]cn2)NC1=O [KR-041, Ac-Nle-[Dab-His-DPhe-Arg-Trp-Dab] Linker: succinic acid-NH2] (Ac-[Nle][Dab]H[dF]RW[Dab]-NH2; linker 2-7 via Suc (inferred)) | 0.04 nM
CCCC[C@@H]1NC(=O)CSC[C@@H](C(N)=O)NC(=O)[C@H](CCCCN)NC(=O)CNC(=O)[C@H](Cc2c[nH]c3ccccc23)NC(=O)[C@H](CCCNC(=N)N)NC(=O)[C@H](Cc2ccccc2)NC(=O)[C@H](Cc2c[nH]cn2)NC(=O)[C@H](CCC(=O)O)NC1=O [KR-036] ({CH2CO}-[Nle]EHFRWGKC-NH2; thioether N-9) | 0.88 nM
CSCC[C@H](NC(=O)[C@H](CO)NC(=O)[C@H](Cc1ccc(O)cc1)NC(=O)[C@H](CO)NC(C)=O)C(=O)N[C@@H](CCC(=O)O)C(=O)N[C@@H](Cc1c[nH]cn1)C(=O)N[C@@H](Cc1ccccc1)C(=O)N[C@@H](CCCNC(=N)N)C(=O)N[C@@H](Cc1c[nH]c2ccccc12)C(=O)NCC(=O)N[C@@H](CCCCN)C(=O)N1CCC[C@H]1C(N)=O [KR-005] | 0.093 nM
CCCC[C@H](NC(C)=O)C(=O)N[C@H]1CCCCn2cc(nn2)C[C@@H](C(=O)N[C@@H](CCCCN)C(N)=O)NC(=O)[C@H](Cc2c[nH]c3ccccc23)NC(=O)[C@H](CCCNC(=N)N)NC(=O)[C@@H](Cc2ccccc2)NC(=O)[C@H](Cc2c[nH]cn2)NC1=O [KR-037, Ac-Nle-[Lys(N3)-His-DPhe-Arg-Trp-Pra]-Lys-NH2] (Ac-[Nle][Lys(N3)]H[dF]RW[Pra]K-NH2; triazole 2-7) | 0.024 nM
CCCC[C@H](NC(C)=O)C(=O)N[C@H]1CCn2cc(nn2)COCc2cn(nn2)CC[C@@H](C(N)=O)NC(=O)[C@H](Cc2c[nH]c3ccccc23)NC(=O)[C@H](CCCNC(=N)N)NC(=O)[C@@H](Cc2ccccc2)NC(=O)[C@H](Cc2c[nH]cn2)NC1=O [KR-042, Ac-Nle-[Dab(N3)-His-DPhe-Arg-Trp-Dab(N3)] linkr: 3,3′-Oxybis[1-propyne]-NH2] | 0.16 nM
CSCC[C@H](NC(=O)[C@H](CO)NC(=O)[C@H](Cc1ccc(O)cc1)NC(=O)[C@H](CO)NC(C)=O)C(=O)N[C@@H](CCC(=O)O)C(=O)N[C@@H](Cc1c[nH]cn1)C(=O)N[C@@H](Cc1ccccc1)C(=O)N[C@@H](CCCNC(=N)N)C(=O)N(C)[C@@H](Cc1c[nH]c2ccccc12)C(=O)NCC(=O)N[C@@H](CCCCN)C(=O)N1CCC[C@H]1C(=O)N[C@H](C(N)=O)C(C)C [KR-024] | 0.88 nM
CCCC[C@H](NC(C)=O)C(=O)N[C@H]1CCCCn2cc(nn2)C[C@@H](C(N)=O)NC(=O)[C@H](Cc2c[nH]c3ccccc23)NC(=O)[C@H](CCCNC(=N)N)NC(=O)[C@@H](Cc2ccccc2)NC(=O)[C@H](Cc2ccc(N)cc2)NC1=O [KR-047, Ac-Nle-[Lys(N3)-Phe(4-NH2)-DPhe-Arg-Trp-Pra]-NH2] (Ac-[Nle][Lys(N3)][Phe(4-NH2)][dF]RW[Pra]-NH2; triazole 2-7) | > 50 nM
CCCC[C@H](NC(C)=O)C(=O)N[C@H]1CCCCn2cc(nn2)C[C@@H](C(=O)N[C@@H](CCCC(N)=O)C(N)=O)NC(=O)[C@H](Cc2c[nH]c3ccccc23)NC(=O)[C@H](CCCNC(=N)N)NC(=O)[C@@H](Cc2ccccc2)NC(=O)[C@H](Cc2c[nH]cn2)NC1=O [KR-057, Ac-Nle-[Lys(N3)-His-DPhe-Arg-Trp-Pra]-Hgln-NH2] (Ac-[Nle][Lys(N3)]H[dF]RW[Pra][Aad](NH2)-NH2; triazole 2-7) | 0.024 nM
CCCC[C@H](NC(C)=O)C(=O)N[C@H]1CCCn2cc(nn2)CC[C@@H](C(=O)N[C@@H](CCCCN)C(N)=O)NC(=O)[C@H](Cc2c[nH]c3ccccc23)NC(=O)[C@H](CCCNC(=N)N)NC(=O)[C@@H](Cc2ccccc2)NC(=O)[C@H](Cc2c[nH]cn2)NC1=O [KR-068, Ac-Nle-[Orn(N3)-His-DPhe-Arg-Trp-Hpra]-Lys-NH2] (Ac-[Nle][Orn(N3)]H[dF]RW[Hpra]K-NH2; triazole 2-7) | 0.04 nM
CCCC[C@H](NC(C)=O)C(=O)N[C@H]1Cc2cn(nn2)CCCC[C@@H](C(=O)N[C@@H](CCCCN)C(N)=O)NC(=O)[C@H](Cc2c[nH]c3ccccc23)NC(=O)[C@H](CCCNC(=N)N)NC(=O)[C@@H](Cc2ccccc2)NC(=O)[C@H](Cc2c[nH]cn2)NC1=O [KR-067, Ac-Nle-[Pra-His-DPhe-Arg-Trp-Lys(N3)]-Lys-NH2] (Ac-[Nle][Pra]H[dF]RW[Lys(N3)]K-NH2; triazole 2-7) | 0.11 nM
